Measured values: patent publication US20200181117A1, “SUBSTITUTED 3-HETEROARYLOXY-1H-PYRAZOLES AND SALTS THEREOF AND THEIR USE AS HERBICIDAL ACTIVE SUBSTANCES” (BAYER CROPSCIENCE AKTIENGESELLSCHAFT, priority 2017, published 2020)

Legend:
Assay type in all cases: in vivo
Amaranthus retroflexus [1] = experiment: Post-emergence herbicidal action; conditions: 1280 g/ha, rated visually after about 3 weeks vs untreated controls
Outline: (§1)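 Visual % activity versus untreated controls (100% = plants died, 0% = like controls), scored about 3 weeks after a foliar spray. Greenhouse plants in sandy loam were treated at one-leaf stage with 1280 g/ha in aqueous spray containing 0.5% additive, 600 l/ha.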

Echinochloa crus-galli [2] = experiment: Post-emergence herbicidal action; conditions: 1280 g/ha, rated visually after about 3 weeks vs untreated controls
Outline: as §1

Ipomoea purpurea = experiment: Post-emergence herbicidal action; conditions: 1280 g/ha, rated visually after about 3 weeks vs untreated controls
Outline: as §1

Pharbitis purpurea = experiment: Post-emergence herbicidal action; conditions: 1280 g/ha, rated visually after about 3 weeks vs untreated controls
Outline: as §1

Viola tricolor [3] = experiment: Post-emergence herbicidal action; conditions: 1280 g/ha, rated visually after about 3 weeks vs untreated controls
Outline: as §1

Abutilon theophrasti = experiment: Pre-emergence herbicidal action; conditions: 1280 g/ha, scored visually after about 3 weeks vs untreated controls
Outline: (§2)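 1280 g/ha, pre-emergence, spray to covering soil; 0.5% additive, 600 l/ha water. Visual % effect vs untreated at ~3 weeks.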

Alopecurus myosuroides [4] = experiment: Pre-emergence herbicidal action; conditions: 1280 g/ha, scored visually after about 3 weeks vs untreated controls
Outline: as §2

Amaranthus retroflexus [5] = experiment: Pre-emergence herbicidal action; conditions: 1280 g/ha, scored visually after about 3 weeks vs untreated controls
Outline: as §2

Echinochloa crus-galli [6] = experiment: Pre-emergence herbicidal action; conditions: 1280 g/ha, scored visually after about 3 weeks vs untreated controls
Outline: as §2

Hordeum murinum = experiment: Pre-emergence herbicidal action; conditions: 1280 g/ha, scored visually after about 3 weeks vs untreated controls
Outline: as §2

Matricaria inodora = experiment: Pre-emergence herbicidal action; conditions: 1280 g/ha, scored visually after about 3 weeks vs untreated controls
Outline: as §2

Polygonum convolvulus [7] = experiment: Pre-emergence herbicidal action; conditions: 1280 g/ha, scored visually after about 3 weeks vs untreated controls
Outline: as §2

Setaria viridis [8] = experiment: Pre-emergence herbicidal action; conditions: 1280 g/ha, scored visually after about 3 weeks vs untreated controls
Outline: as §2

Stellaria media [9] = experiment: Pre-emergence herbicidal action; conditions: 1280 g/ha, scored visually after about 3 weeks vs untreated controls
Outline: as §2

Veronica persica = experiment: Pre-emergence herbicidal action; conditions: 1280 g/ha, scored visually after about 3 weeks vs untreated controls
Outline: as §2

Viola tricolor [10] = experiment: Pre-emergence herbicidal action; conditions: 1280 g/ha, scored visually after about 3 weeks vs untreated controls
Outline: as §2

Alopecurus myosuroides [11] = experiment: Post-emergence herbicidal action; conditions: 1280 g/ha, rated visually after about 3 weeks vs untreated controls
Outline: as §1

Avena fatua [12] = experiment: Post-emergence herbicidal action; conditions: 1280 g/ha, rated visually after about 3 weeks vs untreated controls
Outline: as §1

Polygonum convolvulus [13] = experiment: Post-emergence herbicidal action; conditions: 1280 g/ha, rated visually after about 3 weeks vs untreated controls
Outline: as §1

Setaria viridis [14] = experiment: Post-emergence herbicidal action; conditions: 1280 g/ha, rated visually after about 3 weeks vs untreated controls
Outline: as §1

Avena fatua [15] = experiment: Pre-emergence herbicidal action; conditions: 1280 g/ha, scored visually after about 3 weeks vs untreated controls
Outline: as §2

Lolium rigidum = experiment: Pre-emergence herbicidal action; conditions: 1280 g/ha, scored visually after about 3 weeks vs untreated controls
Outline: as §2

Stellaria media [16] = experiment: Post-emergence herbicidal action; conditions: 1280 g/ha, rated visually after about 3 weeks vs untreated controls
Outline: as §1

COc1cnc(Oc2nn(C)c(C)c2Sc2ccc(Cl)cc2)nc1 [Example I-066]
herbicidal activity on Amaranthus retroflexus (Amaranthus retroflexus [1]): 80% | herbicidal activity on Echinochloa crus-galli (Echinochloa crus-galli [2]): 80% | herbicidal activity on Ipomoea purpurea (Ipomoea purpurea): 80% | herbicidal activity on Pharbitis purpurea (Pharbitis purpurea): 80% | herbicidal activity on Viola tricolor (Viola tricolor [3]): 100% | herbicidal activity on Abutilon theophrasti (Abutilon theophrasti): 90% | herbicidal activity on Alopecurus myosuroides (Alopecurus myosuroides [4]): 80% | herbicidal activity on Amaranthus retroflexus (Amaranthus retroflexus [5]): 100% | herbicidal activity on Echinochloa crus-galli (Echinochloa crus-galli [6]): 100% | herbicidal activity on Hordeum murinum (Hordeum murinum): 100% | herbicidal activity on Matricaria inodora (Matricaria inodora): 100% | herbicidal activity on Polygonum convolvulus (Polygonum convolvulus [7]): 90% | herbicidal activity on Setaria viridis (Setaria viridis [8]): 100% | herbicidal activity on Stellaria media (Stellaria media [9]): 100% | herbicidal activity on Veronica persica (Veronica persica): 100% | herbicidal activity on Viola tricolor (Viola tricolor [10]): 100%

COc1cnc(Oc2nn(C)c(C)c2Sc2ccc(F)cc2)nc1 [Example I-089]
herbicidal activity on Alopecurus myosuroides (Alopecurus myosuroides [11]): 90% | herbicidal activity on Avena fatua (Avena fatua [12]): 80% | herbicidal activity on Polygonum convolvulus (Polygonum convolvulus [13]): 90% | herbicidal activity on Setaria viridis (Setaria viridis [14]): 80% | herbicidal activity on Abutilon theophrasti (Abutilon theophrasti): 100% | herbicidal activity on Alopecurus myosuroides (Alopecurus myosuroides [4]): 90% | herbicidal activity on Amaranthus retroflexus (Amaranthus retroflexus [5]): 100% | herbicidal activity on Avena fatua (Avena fatua [15]): 80% | herbicidal activity on Echinochloa crus-galli (Echinochloa crus-galli [6]): 100% | herbicidal activity on Hordeum murinum (Hordeum murinum): 90% | herbicidal activity on Lolium rigidum (Lolium rigidum): 90% | herbicidal activity on Matricaria inodora (Matricaria inodora): 100% | herbicidal activity on Polygonum convolvulus (Polygonum convolvulus [7]): 90% | herbicidal activity on Setaria viridis (Setaria viridis [8]): 100% | herbicidal activity on Stellaria media (Stellaria media [9]): 100% | herbicidal activity on Veronica persica (Veronica persica): 100% | herbicidal activity on Viola tricolor (Viola tricolor [10]): 100%

Cn1cc(Sc2ccc(F)cc2)c(Oc2ncc(Cl)cn2)n1 [Example I-095]
herbicidal activity on Amaranthus retroflexus (Amaranthus retroflexus [1]): 100% | herbicidal activity on Echinochloa crus-galli (Echinochloa crus-galli [2]): 80% | herbicidal activity on Ipomoea purpurea (Ipomoea purpurea): 80% | herbicidal activity on Pharbitis purpurea (Pharbitis purpurea): 80% | herbicidal activity on Viola tricolor (Viola tricolor [3]): 100% | herbicidal activity on Abutilon theophrasti (Abutilon theophrasti): 100% | herbicidal activity on Alopecurus myosuroides (Alopecurus myosuroides [4]): 100% | herbicidal activity on Amaranthus retroflexus (Amaranthus retroflexus [5]): 100% | herbicidal activity on Avena fatua (Avena fatua [15]): 100% | herbicidal activity on Echinochloa crus-galli (Echinochloa crus-galli [6]): 100% | herbicidal activity on Hordeum murinum (Hordeum murinum): 100% | herbicidal activity on Lolium rigidum (Lolium rigidum): 100% | herbicidal activity on Matricaria inodora (Matricaria inodora): 100% | herbicidal activity on Polygonum convolvulus (Polygonum convolvulus [7]): 90% | herbicidal activity on Setaria viridis (Setaria viridis [8]): 100% | herbicidal activity on Stellaria media (Stellaria media [9]): 100% | herbicidal activity on Veronica persica (Veronica persica): 100% | herbicidal activity on Viola tricolor (Viola tricolor [10]): 100%

Cc1c(Sc2ccc(F)cc2Cl)c(Oc2ncccn2)nn1C [Example I-135]
herbicidal activity on Amaranthus retroflexus (Amaranthus retroflexus [1]): 100% | herbicidal activity on Ipomoea purpurea (Ipomoea purpurea): 80% | herbicidal activity on Pharbitis purpurea (Pharbitis purpurea): 80% | herbicidal activity on Stellaria media (Stellaria media [16]): 90% | herbicidal activity on Viola tricolor (Viola tricolor [3]): 100% | herbicidal activity on Abutilon theophrasti (Abutilon theophrasti): 100% | herbicidal activity on Alopecurus myosuroides (Alopecurus myosuroides [4]): 100% | herbicidal activity on Amaranthus retroflexus (Amaranthus retroflexus [5]): 100% | herbicidal activity on Avena fatua (Avena fatua [15]): 80% | herbicidal activity on Echinochloa crus-galli (Echinochloa crus-galli [6]): 100% | herbicidal activity on Hordeum murinum (Hordeum murinum): 80% | herbicidal activity on Lolium rigidum (Lolium rigidum): 90% | herbicidal activity on Matricaria inodora (Matricaria inodora): 90% | herbicidal activity on Polygonum convolvulus (Polygonum convolvulus [7]): 90% | herbicidal activity on Setaria viridis (Setaria viridis [8]): 100% | herbicidal activity on Stellaria media (Stellaria media [9]): 100% | herbicidal activity on Veronica persica (Veronica persica): 100% | herbicidal activity on Viola tricolor (Viola tricolor [10]): 100%
